What was measured:
[1] = system: HT29 cells; assay: WST-8 cytotoxicity assay; assay type: cell-based, human; conditions: 5, 10 and 20 µM, 24 h (Figure S4); n = 5
Procedure: (§1) Figure 2 In vitro cellular evaluations of ZWPro in cancer cells. a) Cytotoxicity assay showing HT29, MCF7, L929, and NIH3T3 cells treated with 20 µM of ZW and ZWPro for 2 and 24 h, respectively, followed by an assessment of cell viability using the water‐soluble tetrazolium assay (n = 5, mean ± s.e.m.). b) Cellular uptake and intracellular endosomal localization of ZW and ZWPro were observed by treating HT29 and L929 cells with 20 µM of ZW and ZWPro. […] The internalization index was determined in 2–9 photographic areas (ns, not significant, *p < 0.05 based on two‐way analysis of variance followed by Bonferroni's multiple comparison test). c) Inhibition assay of cellular uptake of ZWPro to determine the entry mechanisms in HT29 cells. […] The co‐localizing pixels (%) were calculated by dividing the area of overlap between ZWPro and LysoTracker by the total area of the LysoTracker, respectively. […]
(§2) To evaluate the cytotoxicity of ZW and ZWPro in cancer and normal cells, HT29, MCF7, L929, and NIH 3T3 cells were collected by trypsinization and resuspended in 96‐well plates at a concentration of 10 000 cells/well in fresh growth media and incubated for 1 d at 37 °C under 5% CO2 conditions. […] Absorption was subsequently measured at 450 nm on a microplate reader (Thermo Scientific, Varioskan LUX multimode). […]

[2] = Photostability test under 760 nm laser; assay type: physicochemical; conditions: all tested solvents, up to 4 h
Procedure: Photostability assay was conducted to compare ZW800‐1C with ZWPro in PBS and also evaluated ZWPro in distilled water and 10% FBS in PBS exposed to continuous irradiation using a 760 nm laser diode at 4 mW cm^−2, with white light (400–650 nm) at 40 000 lux and imaged up to 4 h. The fluorescence intensity (FI) signal (%) was calculated by measured values with ImageJ version 1.53t using images captured at each time point. Fluorescence values of the quenching assay were conducted at different concentration points at 0 and 4 h to determine the quenching concentration and to assess any significant photodegradation or photobleaching effects.
The data, presented as mean ± SD, assessed the fluorescence image by measuring regions of interest (ROI) and comparing fluorescence intensity against the initial fluorescence signal.
Figure S3. Optical property characterization of the ZWPro (a) Absorbance and Fluorescence spectra of ZWPro and optical properties of Pro, ZW800-1C, and ZWPro. (b) Stability test of ZWPro with PBS and 10% FBS in PBS until 24 h at 37 °C incubator. (c) Fluorescence image and value are used to determine quenching concentration under a 760nm channel of different concentrations of ZWPro depending on time. Photostability test of (d) ZW800-1C and ZWPro in PBS. (e) Photostability test of ZWPro in different solvents. DW: Distilled water, 10% FBS: Fetal bovine serum in PBS. […]

[3] = system: MCF7 cells; assay: Cellular uptake by fluorescence microscopy; assay type: cell-based; conditions: 20 µM, 2 h, 37 °C; fluorescent microscopy
Procedure: (§3) Fluorescence microscopic assessments were performed to compare the intracellular uptake of ZW and ZWPro in cancerous and normal cells. Two sets of cathepsin B‐expressing cancer cells (HT29 and MCF7) and 2 sets of normal cells (L929 and NIH3T3) were seeded in a confocal dish and incubated at 37 °C for 1 d before treatment. Subsequently, 20 µM ZWPro and ZW were added to the cells for 2 h. Subsequently, 50 nM of LysoTracker Green (a fluorescent dye that selectively labels lysosomes) was added for 30 min. Following incubation with the dye, the cells were resuspended with fresh media after they were rinsed 3 times with 1X PBS to remove any remaining dye, and imaging was performed. To determine the role of organic anion transporter peptides (OATPs) in the ZWPro uptake process, HT29 cells were pretreated with BSP (250 µM, Sigma–Aldrich, 167 207) for 20 min in the inhibition assay. Cells were then incubated with 20 µM of ZWPro at 37 °C for 15 min. After washing, cell images were obtained. Images were obtained using a Nikon Eclipse inverted microscope, DS‐Ri2, or DS‐Qi2 (Ex/Em, 754/774 nm; exposure time, 2 s). The fluorescent intensity of each cell was measured using ImageJ (version 1.51j8, National Institutes of Health, Bethesda, MD, USA). The outline of each cell was determined on a phase‐contrast image.
(§4) Figure S5. Cellular uptake and intracellular localization of ZW and ZWPro. […]

[4] = system: NIH 3T3 cells; assay: WST-8 cytotoxicity assay; assay type: cell-based, mouse; conditions: 5, 10 and 20 µM, 24 h (Figure S4); n = 5
Procedure: (§5) Figure 2 In vitro cellular evaluations of ZWPro in cancer cells. a) Cytotoxicity assay showing HT29, MCF7, L929, and NIH3T3 cells treated with 20 µM of ZW and ZWPro for 2 and 24 h, respectively, followed by an assessment of cell viability using the water‐soluble tetrazolium assay (n = 5, mean ± s.e.m.). b) Cellular uptake and intracellular endosomal localization of ZW and ZWPro were observed by treating HT29 and L929 cells with 20 µM of ZW and ZWPro. […] The internalization index was determined in 2–9 photographic areas (ns, not significant, *p < 0.05 based on two‐way analysis of variance followed by Bonferroni's multiple comparison test). c) Inhibition assay of cellular uptake of ZWPro to determine the entry mechanisms in HT29 cells. Cultured cells were incubated with bromsulphthalein for 20 min and then incubated with ZWPro (20 µM) in media for 15 min. Data are presented as means ± standard deviations (n = 7–8) **p < 0.01 based on Welch's t‐test. d) Findings from HT29 human colorectal adenocarcinoma cells and L929 fibroblast cell lines co‐stained with the lysosome marker LysoTracker Green. Co‐localization occurs at specific time intervals during imaging. The co‐localizing pixels (%) were calculated by dividing the area of overlap between ZWPro and LysoTracker by the total area of the LysoTracker, respectively. Scale bars: 10 µm.
(§6) To evaluate the cytotoxicity of ZW and ZWPro in cancer and normal cells, HT29, MCF7, L929, and NIH 3T3 cells were collected by trypsinization and resuspended in 96‐well plates at a concentration of 10 000 cells/well in fresh growth media and incubated for 1 d at 37 °C under 5% CO2 conditions. After the cells were completely attached to the walls, the original medium was discarded and replaced with a 200 µL fresh culture medium which contained different concentrations of ZW and ZWPro. Cells were then cultured in a constant temperature incubator for 2 and 24 h. EZ‐Cytox solution (10%) was then added to each well, and the plates were incubated at 37 °C in a 5% CO2 incubator for 2 h in the dark. Cells were then exposed to a digital orbital shaker (Scilab Instruments Co, No. SSO‐2D) at 200 rpm. Absorption was subsequently measured at 450 nm on a microplate reader (Thermo Scientific, Varioskan LUX multimode). […] Statistical analysis was conducted using the software GraphPad Prism 8.

[5] = system: L929 cells; assay: WST-8 cytotoxicity assay; assay type: cell-based, mouse; conditions: 5, 10 and 20 µM, 24 h (Figure S4); n = 5
Procedure: as §5, §6

[6] = system: HT29 cells; assay: Cellular uptake by fluorescence microscopy; assay type: cell-based, human; conditions: 20 µM, 2 h, 37 °C; NIR fluorescence microscopy
Procedure: (§7) Figure 2 In vitro cellular evaluations of ZWPro in cancer cells. a) Cytotoxicity assay showing HT29, MCF7, L929, and NIH3T3 cells treated with 20 µM of ZW and ZWPro for 2 and 24 h, respectively, followed by an assessment of cell viability using the water‐soluble tetrazolium assay (n = 5, mean ± s.e.m.). b) Cellular uptake and intracellular endosomal localization of ZW and ZWPro were observed by treating HT29 and L929 cells with 20 µM of ZW and ZWPro. […] The internalization index was determined in 2–9 photographic areas (ns, not significant, *p < 0.05 based on two‐way analysis of variance followed by Bonferroni's multiple comparison test). c) Inhibition assay of cellular uptake of ZWPro to determine the entry mechanisms in HT29 cells. Cultured cells were incubated with bromsulphthalein for 20 min and then incubated with ZWPro (20 µM) in media for 15 min. […] The co‐localizing pixels (%) were calculated by dividing the area of overlap between ZWPro and LysoTracker by the total area of the LysoTracker, respectively. […]
(§8) Fluorescence microscopic assessments were performed to compare the intracellular uptake of ZW and ZWPro in cancerous and normal cells. […] The fluorescent intensity of each cell was measured using ImageJ (version 1.51j8, National Institutes of Health, Bethesda, MD, USA). The outline of each cell was determined on a phase‐contrast image.

[7] = system: HT29 tumor-bearing mice; assay: In vivo tumor reduction test; conditions: i.v. 50 nmol (9.5 mg kg−1) twice; weighed every other day for 30 days; versus control group
Procedure: Owing to the cancer‐specific cytotoxicity of ZWPro, the in vivo tumor targetability and theranostic capacity of ZWPro were evaluated in HT29 tumor‐bearing mice. Preliminary studies were conducted to determine the optimal dosage of ZWPro to achieve effective anticancer activity. […] To investigate the antitumor impact, mice were intravenously injected with PBS (150 µL) (control group), and with ZWPro (150 µL) or ZW (150 µL, 50 nmol at 9.5 mg k^−1g). […] The tumor size increased slightly after the treatment on d 0. […] Stable mouse body weights were observed across all experimental groups. After 30 d of treatment with ZWPro, tumors were smaller than those in the ZW and PBS groups (Figure 4g).
Figure 4 In vivo, tumor growth inhibition and studies in tumor‐induced mice subcutaneously injected with HT29 cells and treated with ZWPro. a) Schematic of the treatment schedule and experimental design of PBS, ZW, and ZWPro. […] PK parameters of ZW and ZWPro (0.3 µmol kg^−1) (t1/2α; distribution half‐life, t1/2β; elimination half‐life, AUC; area under the curve, Vd volume of distribution, and urinary excretion (% injected dose, %ID)) were calculated using the software Prism 9. […] (Exposure time = 100 ms, n = 3, mean ± s.e.m.) The SBR was calculated by the fluorescence intensity of each organ (Or) against the system background (Exposure time = 1000 ms, n = 3, mean ± s.e.m.). […]

[8] = system: HT29 tumor-bearing mice; assay: Time-dependent in vivo NIR tumor imaging and biodistribution; conditions: 20 nmol i.v., real-time NIR fluorescence imaging
Source text: Figure 4 In vivo, tumor growth inhibition and studies in tumor‐induced mice subcutaneously injected with HT29 cells and treated with ZWPro. a) Schematic of the treatment schedule and experimental design of PBS, ZW, and ZWPro. Biodistribution and pharmacokinetic (PK) parameters of targeted ZW and ZWPro in normal mice. PK parameters of ZW and ZWPro (0.3 µmol kg^−1) (t1/2α; distribution half‐life, t1/2β; elimination half‐life, AUC; area under the curve, Vd volume of distribution, and urinary excretion (% injected dose, %ID)) were calculated using the software Prism 9. Urinary excretion occurred at 48 h post‐injection (n = 2–3 per group, mean ± s.e.m.). (b) In total, 20 nmol of each compound was injected into BLAB/C nude mice (weights = 20–25 g) and time‐dependent imaging was performed post‐injection. c) Color and NIR fluorescence in vivo images of ZW and ZWPro (0.3 µmol kg^−1) were taken at different time intervals. d) Tumor‐to‐background (TBR) ratios of tumors (white dotted circles in (c)) compared with muscles obtained from at each time point; and e) signal‐to‐background (SBR) outcomes were calculated using NIR images of resected organs at 48 h post‐injection. (Exposure time = 100 ms, n = 3, mean ± s.e.m.) The SBR was calculated by the fluorescence intensity of each organ (Or) against the system background (Exposure time = 1000 ms, n = 3, mean ± s.e.m.). […]

[9] = system: MCF7 cells; assay: WST-8 cytotoxicity assay; assay type: cell-based; conditions: 5, 10 and 20 µM, 24 h (Figure S4); n = 5
Procedure: as §1, §2

[10] = system: L929 cells; assay: Cellular uptake by fluorescence microscopy; assay type: cell-based, mouse; conditions: 20 µM, 2 h, 37 °C; NIR fluorescence microscopy
Procedure: as §7, §8

[11] = cited from earlier work
Source text: The zwitterionic fluorophore ZW (emitting NIR fluorescence at 800 nm) was synthesized as reported previously.^[ [6] ^] […] To create the ZWPro conjugate, ZW (1.2 equiv.) was covalently attached to Pro using N‐Hydroxysuccinimide (NHS) ester and led to a stable amide bond formation (Figure 1b). Pro peptides were en ...

[12] = system: NIH3T3 cells; assay: Cellular uptake by fluorescence microscopy; assay type: cell-based, mouse; conditions: 20 µM, 2 h, 37 °C; fluorescent microscopy
Procedure: as §3, §4

Compound | toxicity (in words) [1] | photostability (in words) [2] | cellular uptake / internalization (in words) [3] | toxicity (in words) [4] | toxicity (in words) [5] | cellular uptake / internalization (in words) [6] | body weight change (in words) [7] | tumor targeting / accumulation (in words) [8] | toxicity (in words) [9] | cellular uptake / internalization (in words) [10] | plasma protein binding (in words) [11] | cellular uptake / internalization (in words) [12]
CC1(C)C(/C=C/C2=C(c3ccc(CCC(=O)O)cc3)C(=C/C=C3/N(CCC[N+](C)(C)C)c4ccc(S(=O)(=O)O)cc4C3(C)C)/CCC2)=[N+](CCC[N+](C)(C)C)c2ccc(S(=O)(=O)O)cc21 [ZW, ZW800‐1C] | negligible toxicity | strong photostability | does not show internalization | negligible toxicity | negligible toxicity | not internalized | neither ZWPro nor ZW resulted in weight loss | no tumor specificity or cell penetration ability | negligible toxicity | not internalized | low‐plasma protein binding | does not show internalization
Protamine | negligible toxicity |  |  | negligible toxicity | negligible toxicity |  |  |  | negligible toxicity |  |  | 
